Experimental data taken from ChEMBL document CHEMBL1201862, “PubChem BioAssay data set” (2004).
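Test compounds were applied to cells in 96-well plates for 48 hours at 5 doses. Abbreviation: GI50, concentration required for 50% inhibition of growth.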 Activity calls are given as the source filed them. Cut-off read from the data, not from the text of the source: active = GI50 up to about 1.1 µM and inactive = higher.

Tests used:
Test in all cases: inhibition of tumour cell growth, NCI panel, 48 h
[1] = tested on: UACC-257
[2] = tested on: EKVX
[3] = tested on: HCT-116
[4] = tested on: COLO 205
[5] = tested on: SK-MEL-2
[6] = tested on: SK-MEL-5
[7] = tested on: HCT-15
[8] = tested on: LOX IMVI
[9] = tested on: MOLT-4
[10] = tested on: HOP-62
[11] = tested on: OVCAR-5
[12] = tested on: SK-MEL-28
[13] = tested on: KM12
[14] = tested on: CAKI-1
[15] = tested on: RPMI-8226
[16] = tested on: SNB-19
[17] = tested on: NCI-H460
[18] = tested on: UO-31
[19] = tested on: A549
[20] = tested on: SK-OV-3

Structure (SMILES)	GI50 [1]	GI50 [2]	GI50 [3]	GI50 [4]	GI50 [5]	GI50 [6]	GI50 [7] [µM]	GI50 [8]	GI50 [9]	GI50 [10]	GI50 [11]	GI50 [12]	GI50 [13]	GI50 [14]	GI50 [15]	GI50 [16]	GI50 [17]	GI50 [18]	GI50 [19]	GI50 [20]
C=C1CCCC(C)(C)[C@@H]1CC/C(C)=C/Cn1c2cccc(=O)c-2nc2ccccc21	1.96 µM (inactive)	4.4 µM (inactive)	1.35 µM (inactive)	1.96 µM (inactive)	2.37 µM (inactive)	3.95 µM (inactive)	1.18	1.15 µM (inactive)	0.41 µM (active)	3.48 µM (inactive)	3.25 µM (inactive)	4.63 µM (inactive)	2.81 µM (inactive)	1.77 µM (inactive)	2.04 µM (inactive)	4.51 µM (inactive)	1.21 µM (inactive)	2.77 µM (inactive)	1.72 µM (inactive)	4.15 µM (inactive)
N=c1c2ccccc2nc2oc3cc([N+](=O)[O-])ccc3n12	> 100 µM (inactive)	2.21 µM (inactive)	25.6 µM (inactive)	> 100 µM (inactive)	94.2 µM (inactive)	71.6 µM (inactive)	> 100	21 µM (inactive)	> 100 µM (inactive)	18.1 µM (inactive)	28.2 µM (inactive)	74 µM (inactive)	> 100 µM (inactive)	25.4 µM (inactive)	> 100 µM (inactive)	24.9 µM (inactive)	36.9 µM (inactive)	16.6 µM (inactive)	40.1 µM (inactive)	17.9 µM (inactive)
CNC(=O)/C(=C/c1ccc(OC)cc1)c1cc(OC)c(OC)c(OC)c1	5.08 µM (inactive)	10.1 µM (inactive)	1.55 µM (inactive)	1.16 µM (inactive)	3.89 µM (inactive)	0.593 µM (active)	0.743	4.88 µM (inactive)	2.33 µM (inactive)	2.27 µM (inactive)	20.7 µM (inactive)	2.77 µM (inactive)	0.598 µM (active)	2.47 µM (inactive)	2.99 µM (inactive)	4.58 µM (inactive)	1.47 µM (inactive)	6.44 µM (inactive)	1.69 µM (inactive)	1.6 µM (inactive)
CCOC(=O)C(NC(=O)c1ccccc1)(Nc1ccc(S(=O)(=O)Nc2cc(C)on2)cc1)C(F)(F)F (stereo not given)	> 10 µM (inactive)	> 100 µM (inactive)	> 100 µM (inactive)	> 100 µM (inactive)	> 100 µM (inactive)	> 100 µM (inactive)	> 100	> 100 µM (inactive)	> 100 µM (inactive)	> 100 µM (inactive)	> 100 µM (inactive)	> 100 µM (inactive)	> 100 µM (inactive)	> 100 µM (inactive)	> 100 µM (inactive)	> 100 µM (inactive)	> 100 µM (inactive)	> 100 µM (inactive)	> 100 µM (inactive)	> 100 µM (inactive)
CCCCCCCCCCCC1CCCC(C)N1 (stereo not given)	45.8 µM (inactive)	47.3 µM (inactive)	36.8 µM (inactive)	36 µM (inactive)	72.1 µM (inactive)	36.4 µM (inactive)	38.5	18.2 µM (inactive)	15.9 µM (inactive)	43.3 µM (inactive)	80 µM (inactive)	76.6 µM (inactive)	30.9 µM (inactive)	43.2 µM (inactive)	23.2 µM (inactive)	76.2 µM (inactive)	45.1 µM (inactive)	41 µM (inactive)	88.7 µM (inactive)	75.2 µM (inactive)
S=c1[nH]nc(COc2ccc3c(c2)CCCC3)n1/N=C/c1ccc(Cl)cc1	22.6 µM (inactive)	19.1 µM (inactive)	14.5 µM (inactive)	16.6 µM (inactive)	18.2 µM (inactive)	15.7 µM (inactive)	20.4	20.2 µM (inactive)	19.4 µM (inactive)	15.9 µM (inactive)	17.9 µM (inactive)	18.2 µM (inactive)	16.3 µM (inactive)	18.6 µM (inactive)	17.3 µM (inactive)	19.5 µM (inactive)	15.8 µM (inactive)	17.1 µM (inactive)	18.7 µM (inactive)	18.1 µM (inactive)
C[C@@]12CC[C@H]3[C@@H]4CCC(=O)N[C@@]4(C)CC[C@@H]3[C@@]1(C)CC[C@H](OC(=O)Cc1ccc(N(CCCl)CCCl)cc1)C2	24.8 µM (inactive)	16.4 µM (inactive)	16.4 µM (inactive)	20.4 µM (inactive)	51.1 µM (inactive)	13.7 µM (inactive)	17.6	13.8 µM (inactive)	10.1 µM (inactive)	16.8 µM (inactive)	17.3 µM (inactive)	18.4 µM (inactive)	22.7 µM (inactive)	16.5 µM (inactive)	18.4 µM (inactive)	> 10 µM (inactive)	13.7 µM (inactive)	17.8 µM (inactive)	15.7 µM (inactive)	14.1 µM (inactive)
CC1=C(C(=O)OCCO[N+](=O)[O-])C(c2ccccc2C(F)(F)F)C(C(=O)OC(C)C)=C(C)N1 (stereo not given)	11.2 µM (inactive)	24.6 µM (inactive)	9.84 µM (inactive)	14 µM (inactive)	12.8 µM (inactive)	10 µM (inactive)	12.2	13.9 µM (inactive)	4.7 µM (inactive)	20.6 µM (inactive)	14.8 µM (inactive)	16.6 µM (inactive)	8.63 µM (inactive)	11.4 µM (inactive)	5.12 µM (inactive)	18.2 µM (inactive)	10.7 µM (inactive)	11.3 µM (inactive)	13.2 µM (inactive)	39.6 µM (inactive)
Oc1cc(-c2cccc3ccccc23)nc2ncccc12	0.00152 µM (active)	0.0948 µM (active)	0.0261 µM (active)	0.0154 µM (active)	0.0178 µM (active)	0.0021 µM (active)	0.00627	0.033 µM (active)	0.0506 µM (active)	0.962 µM (active)	0.0472 µM (active)	0.0546 µM (active)	0.0122 µM (active)	0.0242 µM (active)	0.0243 µM (active)	0.0274 µM (active)	0.0443 µM (active)	0.0402 µM (active)	0.0481 µM (active)	0.0176 µM (active)
CN(C)S(=O)(=O)n1cnc(CO)c1	> 100 µM (inactive)	> 100 µM (inactive)	> 100 µM (inactive)	> 100 µM (inactive)	> 100 µM (inactive)	> 100 µM (inactive)	> 100	> 100 µM (inactive)	> 100 µM (inactive)	> 100 µM (inactive)	> 100 µM (inactive)	> 100 µM (inactive)	> 100 µM (inactive)	> 100 µM (inactive)	> 100 µM (inactive)	> 100 µM (inactive)	> 100 µM (inactive)	> 100 µM (inactive)	> 100 µM (inactive)	> 100 µM (inactive)
CCOC(=O)c1c(N)sc2c1CC(C)CC2 (stereo not given)	31.2 µM (inactive)	32.6 µM (inactive)	47.6 µM (inactive)	27.9 µM (inactive)	31.9 µM (inactive)	19.2 µM (inactive)	41.8	42.2 µM (inactive)	30.9 µM (inactive)	52.5 µM (inactive)	55.3 µM (inactive)	53.5 µM (inactive)	41.5 µM (inactive)	49 µM (inactive)	30 µM (inactive)	31 µM (inactive)	35.6 µM (inactive)	32.3 µM (inactive)	38.5 µM (inactive)	47.6 µM (inactive)
COc1cc(/C=C/C(=N\NC(N)=S)c2sc(NNC(C)=O)nc2C)ccc1O	> 100 µM (inactive)	> 100 µM (inactive)	> 100 µM (inactive)	> 100 µM (inactive)	> 100 µM (inactive)	> 100 µM (inactive)	> 100	> 100 µM (inactive)	> 100 µM (inactive)	> 100 µM (inactive)	> 100 µM (inactive)	> 100 µM (inactive)	> 100 µM (inactive)	> 100 µM (inactive)	> 100 µM (inactive)	> 100 µM (inactive)	> 100 µM (inactive)	> 100 µM (inactive)	> 100 µM (inactive)	> 100 µM (inactive)
